Key:
EGFR = biological target: T1, EGFR (Homo sapiens, UniProt P00533); assay: Receptor tyrosine kinase inhibition, 33P-ATP FlashPlate assay (EGFR); format: biochemical; details: recombinant GST fusion kinase, substrate Poly(Glu,Tyr)4:1, Ki from IC50, Km ATP 1.3 µM
T1 construct: GST; made in house; host or cells: Sf9 insect cells (baculovirus)
Experimental: (§1) The protein kinases were expressed by means of the baculovirus expression system in Sf9 insect cells as human recombinant GST fusion proteins and purified by affinity chromatography using GSH-agarose. The kinase identity was confirmed by mass spectrometry using LC-ESI-MS/MS technique.
(§2) The measuring of protein kinase activity was performed in 96-well FlashPlates^TM from Perkin Elmer in a 50 µL reaction volume. The reaction mixture consisted of 20 µL of assay buffer solution, 5 µL of ATP solution in water, 5 µL of used test compound in a 10% DMSO solution and finally a premixture of each 10 µL of used substrate and enzyme solutions. The assay buffer solution contained 70 mM of HEPES-NAOH pH 7.5, each 3 mM of magnesium chloride and manganese(II) chloride, 3 µM of sodium orthovanadate, 1.2 mM of DTT, 50 µg/mL of PEG20000 and finally 15 µM of [γ-^33P]-ATP making approximately 7 × 10^5 cpm per well.
(§3) The final kinase concentration has been 10 ng/50 µL for EGFR and IGF-1R. The used substrate was Poly(Glu,Tyr)4:1 in a concentration of 125 ng/50 µL.
(§4) The reaction mixtures were incubated at 30 °C for 60 min. The reaction was stopped with 50 µL of a 2% (v/v) solution of phosphoric acid. Then, the plates were aspirated and washed twice with 200 µL of water or 0.9% solution of sodium chloride. The incorporation of ^33Pi was determined with a microplate scintillation counter. Ten different inhibitor concentrations were measured in a range of 3 nM to 100 µM. The residual activity (%) and the IC50 values were finally calculated. From the IC50 values, the affinity constants Ki were determined using the equation: IC50 = 1/2 [Etotal] + Ki× (1 + [S]/Km) following a competitive inhibitor binding mode[18]. The used Km values for ATP have been measured with 1.3 µM for EGFR and with 2.52 µM for IGF-1R (Table 1).

IGF-1R [1] = biological target: T2, IGF-1R (Homo sapiens, UniProt P08069); assay: Receptor tyrosine kinase inhibition, 33P-ATP FlashPlate assay (IGF-1R); format: biochemical; details: for Ki: recombinant GST fusion kinase, substrate Poly(Glu,Tyr)4:1, Ki from IC50, Km ATP 2.52 µM
T2 construct: GST; made in house; host or cells: Sf9 insect cells (baculovirus)
Experimental: as §1, §2, §3, §4

IGF-1R [2] = tested on: IGF-1R; design: method as in PMID 23639757; details: cited from earlier work

T1 sequence (P00533 25-1210): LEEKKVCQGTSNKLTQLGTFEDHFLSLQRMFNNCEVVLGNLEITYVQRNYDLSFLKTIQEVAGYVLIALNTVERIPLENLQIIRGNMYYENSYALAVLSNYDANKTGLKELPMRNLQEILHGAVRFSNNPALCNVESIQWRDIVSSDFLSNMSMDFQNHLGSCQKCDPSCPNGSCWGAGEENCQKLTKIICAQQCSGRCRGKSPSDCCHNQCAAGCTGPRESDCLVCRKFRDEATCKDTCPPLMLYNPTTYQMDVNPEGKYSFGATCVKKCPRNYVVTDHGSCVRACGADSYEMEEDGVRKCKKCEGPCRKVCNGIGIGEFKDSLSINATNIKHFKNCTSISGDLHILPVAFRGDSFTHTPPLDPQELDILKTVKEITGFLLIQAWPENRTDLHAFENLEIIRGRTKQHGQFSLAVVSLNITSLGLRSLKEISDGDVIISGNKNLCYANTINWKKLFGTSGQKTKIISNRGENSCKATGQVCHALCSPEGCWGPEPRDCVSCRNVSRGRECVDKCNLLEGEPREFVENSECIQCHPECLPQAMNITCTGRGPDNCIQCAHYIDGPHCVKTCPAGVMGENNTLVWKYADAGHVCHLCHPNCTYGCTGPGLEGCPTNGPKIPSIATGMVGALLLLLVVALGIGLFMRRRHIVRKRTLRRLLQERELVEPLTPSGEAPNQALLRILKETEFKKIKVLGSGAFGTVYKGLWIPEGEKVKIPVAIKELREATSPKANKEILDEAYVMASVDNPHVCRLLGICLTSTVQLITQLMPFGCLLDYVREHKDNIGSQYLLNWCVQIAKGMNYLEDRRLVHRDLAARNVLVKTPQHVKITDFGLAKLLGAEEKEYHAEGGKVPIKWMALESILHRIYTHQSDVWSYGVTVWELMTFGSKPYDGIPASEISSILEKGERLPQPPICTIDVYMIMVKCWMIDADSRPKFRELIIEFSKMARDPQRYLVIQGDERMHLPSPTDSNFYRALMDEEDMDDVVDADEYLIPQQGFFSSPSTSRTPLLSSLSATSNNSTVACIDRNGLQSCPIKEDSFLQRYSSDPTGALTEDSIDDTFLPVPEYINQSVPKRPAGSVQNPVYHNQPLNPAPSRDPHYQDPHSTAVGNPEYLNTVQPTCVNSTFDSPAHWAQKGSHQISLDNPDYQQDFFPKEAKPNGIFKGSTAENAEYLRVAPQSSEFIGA
T2 sequence (P08069 31-1367): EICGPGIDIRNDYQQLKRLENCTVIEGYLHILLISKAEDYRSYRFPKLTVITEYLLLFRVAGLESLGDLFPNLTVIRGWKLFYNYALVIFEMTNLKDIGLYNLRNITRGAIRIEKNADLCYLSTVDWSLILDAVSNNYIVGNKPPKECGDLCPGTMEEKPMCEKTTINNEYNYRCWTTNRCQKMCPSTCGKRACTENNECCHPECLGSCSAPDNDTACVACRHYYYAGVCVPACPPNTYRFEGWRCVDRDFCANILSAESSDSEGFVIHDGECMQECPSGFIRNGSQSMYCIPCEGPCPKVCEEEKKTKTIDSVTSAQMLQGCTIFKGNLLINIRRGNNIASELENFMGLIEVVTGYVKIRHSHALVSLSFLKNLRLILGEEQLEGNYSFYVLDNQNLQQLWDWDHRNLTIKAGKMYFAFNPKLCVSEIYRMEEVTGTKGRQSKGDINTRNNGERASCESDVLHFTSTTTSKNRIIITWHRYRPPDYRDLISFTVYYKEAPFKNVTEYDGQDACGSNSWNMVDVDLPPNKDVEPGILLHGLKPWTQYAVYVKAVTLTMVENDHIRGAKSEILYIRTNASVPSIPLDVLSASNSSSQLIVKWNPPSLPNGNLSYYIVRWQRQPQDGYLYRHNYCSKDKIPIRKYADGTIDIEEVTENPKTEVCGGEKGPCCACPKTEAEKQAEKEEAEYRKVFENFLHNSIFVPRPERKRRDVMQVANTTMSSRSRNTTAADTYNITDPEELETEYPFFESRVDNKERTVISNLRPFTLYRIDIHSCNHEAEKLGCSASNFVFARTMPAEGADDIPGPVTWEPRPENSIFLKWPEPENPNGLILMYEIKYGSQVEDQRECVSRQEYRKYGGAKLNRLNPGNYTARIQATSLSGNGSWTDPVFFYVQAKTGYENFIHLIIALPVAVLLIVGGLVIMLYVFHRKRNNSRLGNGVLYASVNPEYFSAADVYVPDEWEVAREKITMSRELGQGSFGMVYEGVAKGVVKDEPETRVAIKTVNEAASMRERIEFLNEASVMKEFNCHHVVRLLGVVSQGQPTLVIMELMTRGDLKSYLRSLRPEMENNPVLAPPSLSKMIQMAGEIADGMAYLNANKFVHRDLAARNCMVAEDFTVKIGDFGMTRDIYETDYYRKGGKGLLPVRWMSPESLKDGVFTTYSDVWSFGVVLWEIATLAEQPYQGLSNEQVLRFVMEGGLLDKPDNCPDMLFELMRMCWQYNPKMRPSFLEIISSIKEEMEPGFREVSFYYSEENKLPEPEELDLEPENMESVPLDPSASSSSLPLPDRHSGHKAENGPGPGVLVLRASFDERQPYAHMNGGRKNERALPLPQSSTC

SMILES	Ki (EGFR)	Ki (IGF-1R [1])	also measured
C#Cc1cccc(Nc2ncnc3cc(OCCOC)c(OCCOC)cc23)c1 [erlotinib]	–	–	activity toward IGF-1R (erlotinib) (IGF-1R [2]): no activity
COc1cccc(CNc2ccnc3[nH]c4ccc(Br)cc4c23)c1 [Compound 5a, N^4–(3-Methoxybenzyl)-6-bromo-9H-pyrido[2,3-b]indole-4-amine]	0.344 ± 0.024 µM	9.84 ± 0.238 µM	–
Brc1cccc(CNc2ccnc3[nH]c4ccc(Br)cc4c23)c1 [Compound 5c, N^4–(3-Bromobenzyl)-6-bromo-9H-pyrido[2,3-b]indole-4-amine]	0.255 ± 0.018 µM	2.96 ± 0.037 µM	–
Nc1cccc(CNc2ccnc3[nH]c4ccc(Br)cc4c23)c1 [Compound 5d, N^4–(3-Aminobenzyl)-6-bromo-9H-pyrido[2,3-b]indole-4-amine]	0.101 ± 0.011 µM	0.537 ± 0.022 µM	–
COc1ccc(CNc2ccnc3[nH]c4ccc(Br)cc4c23)cc1 [Compound 5e, N^4–(4-Methoxybenzyl)-6-bromo-9H-pyrido[2,3-b]indole-4-amine]	1.17 ± 0.057 µM	2.23 ± 0.022 µM	–
Clc1cccc(CNc2ccnc3[nH]c4ccc(Br)cc4c23)c1 [Compound 5b, N^4–(3-Chlorobenzyl)-6-bromo-9H-pyrido[2,3-b]indole-4-amine]	0.361 ± 0.035 µM	3.47 ± 0.071 µM	–
Brc1ccc(CNc2ccnc3[nH]c4ccc(Br)cc4c23)cc1 [Compound 5g, N^4–(4-Bromobenzyl)-6-bromo-9H-pyrido[2,3-b]indole-4-amine]	0.448 ± 0.072 µM	0.884 ± 0.025 µM	–
Clc1ccc(CNc2ccnc3[nH]c4ccc(Br)cc4c23)cc1 [Compound 5f, N^4–(4-Chlorobenzyl)-6-bromo-9H-pyrido[2,3-b]indole-4-amine]	–	2.29 ± 0.043 µM	Ki values EGFR (EGFR): lost

More lines, main results first:

Ki (EGFR)	Ki (IGF-1R [1])	SMILES	also measured
0.072 ± 0.017 µM	0.288 ± 0.026 µM	COc1cccc(CNc2ccnc3[nH]c4ccc(C#N)cc4c23)c1 [Compound 6a, 4–(3-Methoxybenzyl)amino-9H-pyrido[2,3-b]indole-6-carbonitrile]	affinity towards IGF-1R relative to corresponding 6-bromo compound 5a (IGF-1R [1]; fold comparison of Ki with 5a): more than thirtyfold higher
0.14 ± 0.028 µM	2.36 ± 0.132 µM	COc1cccc(CNc2ccnc3[nH]c4ccc(C(=O)O)cc4c23)c1 [Compound 7]	affinity towards IGF-1R relative to corresponding 6-cyano compound 6a (IGF-1R [1]; fold comparison of Ki with 6a): almost tenfold lower
0.16 ± 0.015 µM	0.39 ± 0.016 µM	Cc1ccc(CNc2ccnc3[nH]c4ccc(C#N)cc4c23)cc1 [Compound 6c, 4–(4-Methylbenzyl)amino-9H-pyrido[2,3-b]indole-6-carbonitrile]	–
0.279 ± 0.091 µM	0.697 ± 0.015 µM	Cc1ccc(CNc2ccnc3[nH]c4ccc(Br)cc4c23)cc1 [Compound 5h, N^4–(4-Methylbenzyl)-6-bromo-9H-pyrido[2,3-b]indole-4-amine]	–
0.158 ± 0.026 µM	0.269 ± 0.022 µM	COc1ccc(CNc2ccnc3[nH]c4ccc(C#N)cc4c23)cc1 [Compound 6b, 4–(4-Methoxybenzyl)amino-9H-pyrido[2,3-b]indole-6-carbonitrile]	–

Source: paper PMC6009933, “Discovery of novel dual inhibitors of receptor tyrosine kinases EGFR and IGF-1R” (Journal of Enzyme Inhibition and Medicinal Chemistry, 2017)
